From PubChem BioAssay AID328 (DTP/NCI, 2004)
Several values for one entry are separate records, joined by “and”; a condition that tells them apart may be missing. Identical values can stand only once. Toxic doses and inconclusive results are not listed. Residues, ends and D or L forms follow the SMILES beside them.

Tested on: BDF1 mice, P388 leukemia ip, median survival T/C
Assay: NCI In Vivo Anticancer Drug Screen. Data for tumor model P388 Leukemia (intraperitoneal) in B6D2F1 (BDF1) mice
Details: endpoint: median survival time, higher = longer survival
Procedure, shortened: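 Steps: implant the tumour, treat one group with compound and another with vehicle, record survival, then divide treated by control.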

[1] = dose: 200.0 mg/kg/injection, schedule: Q01DX009 (ip), vehicle: saline with Tween-80
[2] = dose: 100.0 mg/kg/injection, schedule: Q04DX003 (ip), vehicle: saline with Tween-80
[3] = dose: 200.0 mg/kg/injection, schedule: Q04DX003 (ip), vehicle: saline with Tween-80
[4] = dose: 400.0 mg/kg/injection, schedule: Q04DX003 (ip), vehicle: saline with Tween-80
[5] = dose: 50.0 mg/kg/injection, schedule: Q01DX009 (ip), vehicle: saline with Tween-80
[6] = dose: 100.0 mg/kg/injection, schedule: Q01DX009 (ip), vehicle: saline with Tween-80
[7] = dose: 400.0 mg/kg/injection, schedule: Q01DX009 (ip), vehicle: saline with Tween-80
[8] = dose: 50.0 mg/kg/injection, schedule: Q01DX009 (ip), vehicle: saline
[9] = dose: 100.0 mg/kg/injection, schedule: Q01DX009 (ip), vehicle: saline

SMILES: CC1OC(OC2C(=O)c3c(O)cc(O)cc3OC2c2ccc(O)c(O)c2)C(O)C(O)C1O (stereo not given)
- T/C (dose: 25.0 mg/kg/injection, schedule: Q01DX009 (ip), vehicle: alcohol): 100 % of control
- T/C (dose: 50.0 mg/kg/injection, schedule: Q01DX009 (ip), vehicle: alcohol): 96 % of control
- T/C (dose: 100.0 mg/kg/injection, schedule: Q01DX009 (ip), vehicle: alcohol): 92 % of control
- T/C (dose: 200.0 mg/kg/injection, schedule: Q01DX009 (ip), vehicle: alcohol): 106 % of control
- T/C [1]: 115 % of control
- T/C (dose: 300.0 mg/kg/injection, schedule: Q01DX009 (ip), vehicle: saline with Tween-80): 90 % of control
- T/C (dose: 455.0 mg/kg/injection, schedule: Q01DX009 (ip), vehicle: saline with Tween-80): 99 % of control

SMILES: CCN(CC)CCNc1ccc(N=Nc2cnc3ccccc3c2)c2ccccc12
- T/C (dose: 75.0 mg/kg/injection, schedule: Q01DX009 (ip), vehicle: Klucel (hydroxypropylcellulose) (HPC)): 95 % of control
- T/C (dose: 115.0 mg/kg/injection, schedule: Q01DX009 (ip), vehicle: Klucel (hydroxypropylcellulose) (HPC)): 100 % of control

SMILES: Cc1ccc(S(=O)(=O)Nc2ccccc2SSc2ccccc2NS(=O)(=O)c2ccc(C)cc2)cc1
- T/C [2]: 100 % of control
- T/C [3]: 110 % of control
- T/C [4]: 110 % of control

SMILES: CNC=O
- T/C (dose: 7.5 mg/kg/injection, schedule: Q01DX010 (ip), vehicle: saline): 100 % of control
- T/C (dose: 15.0 mg/kg/injection, schedule: Q01DX010 (ip), vehicle: saline): 104 % of control and 109 % of control
- T/C (dose: 30.0 mg/kg/injection, schedule: Q01DX010 (ip), vehicle: saline): 104 % of control and 118 % of control
- T/C (dose: 60.0 mg/kg/injection, schedule: Q01DX010 (ip), vehicle: saline): 109 % of control and 113 % of control
- T/C (dose: 300.0 mg/kg/injection, schedule: Q01DX010 (ip), vehicle: saline): 154 % of control
- T/C (dose: 455.0 mg/kg/injection, schedule: Q01DX010 (ip), vehicle: saline): 154 % of control
- T/C (dose: 680.0 mg/kg/injection, schedule: Q01DX010 (ip), vehicle: saline): 91 % of control

SMILES: O=C1C(NC(=O)C2CCCCC2)=C(N2CC2)C(=O)C(NC(=O)C2CCCCC2)=C1N1CC1
- T/C (dose: 25.0 mg/kg/injection, schedule: Q01DX009 (ip), vehicle: Klucel (hydroxypropylcellulose) (HPC)): 123 % of control
- T/C (dose: 50.0 mg/kg/injection, schedule: Q01DX010 (ip), vehicle: saline): 118 % of control
- T/C (dose: 100.0 mg/kg/injection, schedule: Q01DX009 (ip), vehicle: Klucel (hydroxypropylcellulose) (HPC)): 106 % of control
- T/C (dose: 200.0 mg/kg/injection, schedule: Q01DX010 (ip), vehicle: saline): 150 % of control and 209 % of control
- T/C (dose: 400.0 mg/kg/injection, schedule: Q01DX010 (ip), vehicle: saline): 86 % of control

SMILES: COc1ccc(C2=C(c3ccccc3)C(c3ccccc3)=C(c3ccc(OC)cc3)C2=O)cc1
- T/C [5]: 103 % of control
- T/C [6]: 89 % of control
- T/C [1]: 99 % of control
- T/C [7]: 94 % of control

SMILES: COCCCN=C(N)c1ccc(NC(=O)c2ccc(C(=O)Nc3ccc(C(N)=NCCCOC)cc3)cc2)cc1
- T/C (dose: 0.22 mg/kg/injection, schedule: Q01DX009 (ip), vehicle: saline with Tween-80): 120 % of control
- T/C (dose: 0.5 mg/kg/injection, schedule: Q01DX009 (ip), vehicle: saline with Tween-80): 116 % of control
- T/C (dose: 0.66 mg/kg/injection, schedule: Q01DX009 (ip), vehicle: saline with Tween-80): 150 % of control
- T/C (dose: 1.0 mg/kg/injection, schedule: Q01DX009 (ip), vehicle: saline with Tween-80): 156 % of control
- T/C (dose: 1.5 mg/kg/injection, schedule: Q01DX009 (ip), vehicle: saline with Tween-80): 176 % of control
- T/C (dose: 1.78 mg/kg/injection, schedule: Q04DX003 (ip), vehicle: saline with Tween-80): 118 % of control
- T/C (dose: 2.25 mg/kg/injection, schedule: Q01DX009 (ip), vehicle: saline with Tween-80): 194 % of control
- T/C (dose: 3.75 mg/kg/injection, schedule: Q01DX009 (ip), vehicle: saline with Tween-80): 231 % of control
- T/C (dose: 4.0 mg/kg/injection, schedule: Q04DX003 (ip), vehicle: saline with Tween-80): 122 % of control
- T/C (dose: 7.5 mg/kg/injection, schedule: Q01DX009 (ip), vehicle: saline with Tween-80): 113 % of control
- T/C (dose: 15.0 mg/kg/injection, schedule: Q01DX009 (ip), vehicle: saline with Tween-80): 90 % of control
- T/C (dose: 15.0 mg/kg/injection, schedule: Q04DX003 (ip), vehicle: saline with Tween-80): 159 % of control

SMILES: FC(F)(F)c1nc2nccnc2[nH]1
- T/C [8]: 100 % of control
- T/C [9]: 100 % of control
- T/C (dose: 200.0 mg/kg/injection, schedule: Q01DX009 (ip), vehicle: saline): 108 % of control
- T/C (dose: 200.0 mg/kg/injection, schedule: Q04DX003 (ip), vehicle: Klucel (hydroxypropylcellulose) (HPC)): 88 % of control

SMILES: COc1cc([N+](=O)[O-])ccc1NC(=O)NCc1ccccc1
- T/C [5]: 95 % of control
- T/C [6]: 98 % of control
- T/C [1]: 98 % of control
- T/C [7]: 104 % of control

SMILES: NC(=O)C(Cc1ccc(O)cc1)NC(=O)C(N)Cc1c[nH]c2ccccc12 (stereo not drawn) (H-Trp-Tyr-NH2; configuration not given here)
- T/C (dose: 50.0 mg/kg/injection, schedule: Q01DX005 (ip), vehicle: saline): 92 % of control
- T/C (dose: 100.0 mg/kg/injection, schedule: Q01DX005 (ip), vehicle: saline): 92 % of control
- T/C (dose: 200.0 mg/kg/injection, schedule: Q01DX005 (ip), vehicle: saline): 87 % of control

SMILES: Cc1cccc(C)c1NC(=O)N(CCCl)N=O
- T/C (dose: 0.88 mg/kg/injection, schedule: Q01DX009 (ip), vehicle: saline with Tween-80): 159 % of control
- T/C (dose: 1.32 mg/kg/injection, schedule: Q01DX009 (ip), vehicle: saline with Tween-80): 159 % of control
- T/C (dose: 2.0 mg/kg/injection, schedule: Q01DX009 (ip), vehicle: saline with Tween-80): 204 % of control
- T/C (dose: 3.0 mg/kg/injection, schedule: Q01DX009 (ip), vehicle: saline with Tween-80): 200 % of control
- T/C (dose: 12.5 mg/kg/injection, schedule: Q04DX003 (ip), vehicle: saline with Tween-80): 86 % of control
- T/C (dose: 25.0 mg/kg/injection, schedule: Q04DX003 (ip), vehicle: saline with Tween-80): 109 % of control

SMILES: CC1(C)CC(=O)NN1C(=O)c1ccccc1
- T/C [2]: 100 % of control
- T/C [3]: 105 % of control
- T/C [4]: 95 % of control

SMILES: CCCCCCCCCCCCCCCCCC(=O)[O][Hg][c]1ccccc1
- T/C (dose: 5.0 mg/kg/injection, schedule: Q01DX009 (ip), vehicle: Klucel (hydroxypropylcellulose) (HPC)): 100 % of control
- T/C (dose: 5.5 mg/kg/injection, schedule: Q01DX001 (ip), vehicle: Klucel (hydroxypropylcellulose) (HPC)): 104 % of control
- T/C (dose: 10.0 mg/kg/injection, schedule: Q01DX009 (ip), vehicle: Klucel (hydroxypropylcellulose) (HPC)): 104 % of control
- T/C (dose: 10.0 mg/kg/injection, schedule: Q01DX009 (ip), vehicle: other): 115 % of control
- T/C (dose: 11.0 mg/kg/injection, schedule: Q01DX001 (ip), vehicle: Klucel (hydroxypropylcellulose) (HPC)): 95 % of control
- T/C (dose: 14.0 mg/kg/injection, schedule: Q04DX003 (ip), vehicle: Klucel (hydroxypropylcellulose) (HPC)): 115 % of control
- T/C (dose: 20.0 mg/kg/injection, schedule: Q01DX009 (ip), vehicle: Klucel (hydroxypropylcellulose) (HPC)): 109 % of control
- T/C (dose: 22.0 mg/kg/injection, schedule: Q04DX003 (ip), vehicle: Klucel (hydroxypropylcellulose) (HPC)): 120 % of control

SMILES: CC(=O)NC(CC(=O)O)C(=O)O (stereo not given)
- T/C (dose: 25.0 mg/kg/injection, schedule: Q01DX009 (ip), vehicle: saline): 95 % of control
- T/C [8]: 95 % of control
- T/C [9]: 105 % of control

SMILES: CC(=O)C[P+](c1ccccc1)(c1ccccc1)c1ccccc1
- T/C (dose: 100.0 mg/kg/injection, schedule: Q01DX001 (ip), vehicle: saline): 109 % of control

SMILES: CCNc1c([N+](=O)[O-])cc(S(=O)(=O)O)cc1[N+](=O)[O-]
- T/C (dose: 50.0 mg/kg/injection, schedule: Q04DX003 (ip), vehicle: saline sonified): 100 % of control
- T/C (dose: 100.0 mg/kg/injection, schedule: Q04DX003 (ip), vehicle: saline sonified): 104 % of control
- T/C (dose: 200.0 mg/kg/injection, schedule: Q04DX003 (ip), vehicle: saline sonified): 104 % of control
